System: Klebsiella pneumoniae (KPN) isolates
Assay: MIC of compounds alone and combined with antibacterials, broth microdilution (CLSI)
Type: cell-based
Method in brief: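 First, log-phase suspensions are brought to 5.10^5 CFU/mL final in ca-MHB; plates then incubate 16-20 h at 35° C in air. Growth is judged visually, giving the compound MIC alone and the antibacterial MIC at each compound concentration.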

C=CC1=C(C(=O)O)N2C(=O)[C@@H](NC(=O)/C(=N\OCC(=O)O)c3csc(N)n3)[C@H]2SC1 [FIX, Cefixime]
<0.25 µg/mL: MIC ATB in combination (strain KPN UFR162, with AF3 @ 8 μg/mL) | MIC ATB in combination (strain KPN UFR163, with AF3 @ 8 μg/mL) | MIC ATB in combination (strain KPN UFR170, with AF2 @ 8 μg/mL) | MIC ATB in combination (strain KPN UFR171, with AF2 @ 8 μg/mL) | MIC ATB in combination (strain KPN UFR171, with AF3 @ 8 μg/mL) | MIC ATB in combination (strain KPN UFR172, with AF2 @ 8 μg/mL) | MIC ATB in combination (strain KPN UFR172, with AF3 @ 8 μg/mL)
>128 µg/mL: MIC (strain KPN UFR67, genotype TEM-1, SHV-11, KPC-3) | MIC (strain KPN UFR68, compound alone) | MIC (strain KPN UFR68, genotype TEM-1, SHV-11, CTX-M-15, KPC-3) | MIC (strain KPN UFR76, genotype TEM-155, SHV-11, ACT-1, OXA-2) | MIC (strain KPN UFR78, genotype TEM-1, SHV-1, CTX-M-15, CMY-2, OXA-1, OXA-48) | MIC (strain KPN UFR79, genotype DHA-1, OXA-1) | MIC (strain KPN UFR81, genotype TEM-1, SHV-1, DHA-1, OXA-48) | MIC (strain KPN UFR162, genotype SHV-28, TEM-1, CTX-M-15, OXA-181, OXA-181, NDM-1, antibiotic alone) | MIC ATB in combination (strain KPN UFR162, with AF2 @ 8 μg/mL) | MIC ATB in combination (strain KPN UFR162, with CLA @ 4 μg/mL) | MIC (strain KPN UFR163, genotype TEM-1, SHV-1, CTX-M-15, OXA-232, OXA-9, NDM-1, qnrB1, qepA, RmtB, antibiotic alone) | MIC ATB in combination (strain KPN UFR163, with AF2 @ 8 μg/mL) | MIC ATB in combination (strain KPN UFR163, with CLA @ 4 μg/mL) | MIC (strain KPN UFR164, genotype SHV-11, CTX-M-15, OXA-1, OXA-181, NDM-1, antibiotic alone) | MIC ATB in combination (strain KPN UFR164, with AF2 @ 8 μg/mL) | MIC ATB in combination (strain KPN UFR164, with AF3 @ 8 μg/mL) | MIC ATB in combination (strain KPN UFR164, with CLA @ 4 μg/mL) | MIC (strain KPN UFR165, genotype TEM-1, SHV-11, CTX-M-15, OXA-1, OXA-181, NDM-1, antibiotic alone) | MIC ATB in combination (strain KPN UFR165, with AF3 @ 8 μg/mL) | MIC ATB in combination (strain KPN UFR165, with CLA @ 4 μg/mL) | MIC (strain KPN UFR166, genotype TEM-1, TEM-1, CTX-M-15, OXA-181, OXA-9, NDM-1, antibiotic alone) | MIC ATB in combination (strain KPN UFR166, with AF2 @ 8 μg/mL) | MIC ATB in combination (strain KPN UFR166, with AF3 @ 8 μg/mL) | MIC ATB in combination (strain KPN UFR166, with CLA @ 4 μg/mL) | MIC (strain KPN UFR167, genotype TEM-1, SHV-12, CTX-M-15, OXA-9, NDM-1, antibiotic alone) | MIC ATB in combination (strain KPN UFR167, with AF2 @ 8 μg/mL) | MIC ATB in combination (strain KPN UFR167, with AF3 @ 8 μg/mL) | MIC ATB in combination (strain KPN UFR167, with CLA @ 4 μg/mL) | MIC (strain KPN UFR168, genotype SHV-2, CTX-M-15, OXA-1, OXA-181, NDM-1, ArmA, antibiotic alone) | MIC ATB in combination (strain KPN UFR168, with AF2 @ 8 μg/mL) | MIC ATB in combination (strain KPN UFR168, with AF3 @ 8 μg/mL) | MIC ATB in combination (strain KPN UFR168, with CLA @ 4 μg/mL) | MIC (strain KPN UFR169, genotype TEM-1, SHV-28, CTX-M-15, CMY-4, OXA-1, NDM-1, antibiotic alone) | MIC ATB in combination (strain KPN UFR169, with AF2 @ 8 μg/mL) | MIC ATB in combination (strain KPN UFR169, with AF3 @ 8 μg/mL) | MIC ATB in combination (strain KPN UFR169, with CLA @ 4 μg/mL) | MIC (strain KPN UFR170, genotype TEM-1, SHV-28, CTX-M-15, CMY-6, OXA-1, OXA-9, NDM-1, antibiotic alone) | MIC ATB in combination (strain KPN UFR170, with AF3 @ 8 μg/mL) | MIC ATB in combination (strain KPN UFR170, with CLA @ 4 μg/mL) | MIC (strain KPN UFR171, genotype TEM-1, SHV-28, CTX-M-15, OXA-1, OXA-10, NDM-1, RmtA, antibiotic alone) | MIC ATB in combination (strain KPN UFR171, with CLA @ 4 μg/mL) | MIC (strain KPN UFR172, genotype SHV-38, CMY-16, OXA-10, NDM-1, antibiotic alone) | MIC ATB in combination (strain KPN UFR172, with CLA @ 4 μg/mL) | MIC (strain KPN UFR215, genotype SHV-27, CTX-M-15) | MIC (strain KPN UFR216, genotype SHV-28, CTX-M-15) | MIC (strain KPN UFR217, genotype TEM-1, SHV-1, CTX-M-15) | MIC (strain KPN UFR219, genotype SHV-12, CTX-M-15) | MIC (strain KPN UFR220, genotype TEM-1, SHV-12, DHA-1) | MIC (strain KPN UFR222, genotype DHA-2) | MIC (strain KPN UFR227O, genotype TEM-x, SHV-x, CTX-M-x) | MIC (strain KPN UFR229O, genotype SHV-12, VIM-1, antibiotic alone) | MIC ATB in combination (strain KPN UFR229O, with AF2 @ 8 μg/mL) | MIC ATB in combination (strain KPN UFR229O, with AF3 @ 8 μg/mL) | MIC ATB in combination (strain KPN UFR229O, with CLA @ 4 μg/mL)
512 µg/mL: MIC (strain KPN UFR66, genotype TEM-1, SHV-11, CTX-M-15, KPC-2)
128 µg/mL: MIC (strain KPN UFR77, genotype CMY-2)
64 µg/mL: MIC ATB in combination (strain KPN UFR165, with AF2 @ 8 μg/mL) | MIC (strain KPN UFR221, genotype TEM-1, SHV-11, CTX-M-14, DHA-1)
<=0.25 μg/mL: MIC (strain KPN UFR80, genotype SHV-11, DHA-1, OXA-1)
